Measurements taken from patent US20090099243A1, “ORGANIC COMPOUNDS” (priority 2007, published 2009).

Each compound was assayed against T1, recombinant human NPY Y2 receptors (Homo sapiens, UniProt P49146) (assay: Scintillation proximity [35S]GTPγS binding assay (inhibition of 0.5 nM NPY-stimulated [35S]GTPγS binding)). Conditions: 10 μM compound, CHO-C4 membranes.
T1 construct: expressed in transfected cells; host or cells: CHO-C4 cells (membrane preparation)
T1 sequence (P49146 1-381): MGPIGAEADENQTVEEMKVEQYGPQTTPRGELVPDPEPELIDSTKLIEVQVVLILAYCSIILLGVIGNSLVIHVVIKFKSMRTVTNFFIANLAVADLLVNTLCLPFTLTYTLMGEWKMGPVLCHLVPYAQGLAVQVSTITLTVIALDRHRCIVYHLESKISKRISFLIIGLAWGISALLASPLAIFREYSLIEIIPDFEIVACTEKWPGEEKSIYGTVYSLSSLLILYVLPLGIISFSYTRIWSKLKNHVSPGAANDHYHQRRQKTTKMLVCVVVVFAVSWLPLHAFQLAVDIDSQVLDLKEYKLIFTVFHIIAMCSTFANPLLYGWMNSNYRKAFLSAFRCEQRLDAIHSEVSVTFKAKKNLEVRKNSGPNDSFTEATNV
Assay type: biochemical
Protocol: Preparation of Membranes: CHO—C4 cells expressing recombinant human NPY Y2 receptors were used to prepare membranes for the GTPγS assay. Cells were grown to 80-95% confluency on 15-cm (225 cm^2) tissue culture plates. After aspiration of the culture medium, cells were washed twice with 18 ml ice-cold phosphate-buffered saline (PBS), scraped off and suspended in 3 ml ice-cold PBS in pre-cooled centrifuge tubes. The dishes were rinsed with 2 ml ice-cold PBS per dish and the washings were combined with the PBS cell suspension from above. Cells pooled from 5-7 dishes were centrifuged for 5 min at 10,000 rpm (12,000 g) in a Sorvall RC5B centrifuge using an SS34 rotor at 4° C. The cell pellet was resuspended in 5 ml ice-cold buffer (20 mM HEPES, 10 mM EDTA; pH 7.4) by vortexing (2-5 sec), homogenized using a Polytron (step 4 for 20-30 sec), and ice-cold buffer added to 25 ml. The suspension was centrifuged again for 20 min at 18,000 rpm (39,000 g) at 4° C. and the pellet resuspended in 5 ml ice-cold buffer (20 mM HEPES, 0.1 mM EDTA; pH 7.4) by vortexing (2-5 sec), homogenized with a Polytron (step 4 for 10 sec), and ice-cold buffer added to 25 ml. The suspension was centrifuged a third time for 20 min at 18,000 rpm (39,000 g) at 4° C. The pellet was resuspend in 1 ml ice-cold buffer (20 mM Hepes, 0.1 mM EDTA; pH 7.4) by vortexing (5-8 sec). Two to five resuspended pellets were combined and homogenized using a Polytron (step 4 for 15-25 sec). A small aliquot (20-50 μl) was removed for protein determination by the Coomassie Plus Protein Assay Reagent (Pierce) using BSA as standard. The membrane suspension was aliquoted in pre-cooled (on dry ice) Eppendorf tubes (0.25-1 ml/tube affording approximately 0.5-2 mg of membrane protein/tube). The pellets were frozen and stored at −80° C.
Scintillation proximity [^35S]GTPγS binding assay: Frozen membranes from CHO—C4 cells expressing recombinant human NPY Y2 receptors (2 mg for four 96-well plates) were thawed on ice. Thawed membranes were pipetted into 10 ml of assay buffer (20 mM. HEPES, 10 mM MgCl2, 100 mM NaCl, pH 7.4) and homogenized briefly using a Polytron. The final assay mixture was prepared in 96-well microtiter plates (Isoplate Wallac, Perkin Elmer). The composition of the assay mixtures in a final volume of 250 μl per well was as follows: 20 mM HEPES, 10 mM MgCl2, 100 mM NaCl, pH 7.4, 30 μM GDP, 1 mg/ml BSA (added fresh), 5 μg membrane protein, 1.5 mg Wheatgerm agglutinin SPA beads (Amersham), 0.45 nM [^35S]GTPγS (Amersham, SJ1308, 1000 Ci/mmol, stabilized solution), and the test compounds (agonists and/or antagonists) at the appropriate concentrations. The samples were incubated at room temperature for 90 min by shaking, after which the SPA beads were sedimented by centrifugation in an Eppendorf 5804 centrifuge at 2700 rpm for 10 min at room temperature. After 60 min the plates were counted in a TopCount (Canberra). Basal [^35S]GTPγS binding was measured in the absence of agonist (NPY). Non-specific binding was measured in the presence of excess (10 μM) unlabelled GTPγS (Sigma). Nonspecific binding never exceeded 10% of basal binding and was thus not subtracted from the experimental data. Antagonists were tested for the inhibition of 0.5 nM NPY-stimulated [^35S]GTPγS binding. Antagonist inhibition curves were analyzed by non-linear regression using GraphPad Prism software (Version 4.0, GraphPad Software Inc., CA, USA).
Antagonistic activity of compounds of the present invention was examined by the Scintillation proximity [35S]GTPγS binding assay as described above (inhibition of 0.5 nM NPY-stimulated [^35S]GTPγS binding). The table below represents percentages of inhibition at a concentration of 10 μM.
For `CCCC1(c2ccccc2)NC(=O)N(CC(=O)c2ccc(NC(=O)Cc3c(C)noc3C)cc2)C1=O` (single isomer, unassigned; (-)) [Example 29], the “[%] inhibiton at 10 μM” value was 99%.
In the case of `COc1ccc(CC(=O)Nc2ccc(C(=O)CN3C(=O)NC(c4ccccc4)(c4ccc(C)cc4)C3=O)cc2)c(OC)c1` (racemic) [Example 41, (±)-2-2,4-Dimethoxy-phenyl)-N-{4-[2-(2,5-dioxo-4-phenyl-4-p-tolyl-imidazolidin-1-yl)-acetyl]-phenyl}-acetamide], the “[%] inhibiton at 10 μM” value is reported as 60%.
For `Cc1noc(C)c1CC(=O)Nc1ccc(C(=O)CN2C(=O)NC(c3ccccc3)(c3ccccc3)C2=O)cc1` [Example 27, 2-(3,6-Dimethyl-isoxazol-4-yl)-N-{4-[2-(2,5-dioxo-4,4-diphenyl-imidazolidin-1-yl)-acetyl]-phenyl}-acetamide], the “[%] inhibiton at 10 μM” value was 96%.
`CCCC1(c2ccccc2)NC(=O)N(CC(=O)c2ccc(NC(=O)C(CC)CC)cc2)C1=O` (single isomer, unassigned; (+)) [Example 32] was tested, and the “[%] inhibiton at 10 μM” value was 90%.
With `CCCC1(c2ccccc2)NC(=O)N(CC(=O)c2ccc(NC(=O)C(CC)CC)cc2)C1=O` (single isomer, unassigned; (-)) [Example 31] the “[%] inhibiton at 10 μM” value was 97%.

Same assay, conditions: 10 μM compound, CHO-C4 membranes, read-out: [%] inhibiton at 10 μM
Work on `CCC(=O)Nc1ccc(C(=O)CN2C(=O)NC(c3ccc(F)cc3)(c3ccc(F)cc3)C2=O)cc1` [Example 12, N-(4-{2-[4,4-Bis-(4-fluoro-phenyl)-2,5-dioxo-imidazolidin-1-yl]-acetyl}-phenyl)-propionamide] yielded an inhibition at 10 µM of 42%.
`CCC1(c2ccccc2)NC(=O)N(Cc2ccc(NC(=O)Nc3c(C)noc3C)cc2)C1=O` (racemic) [Example 19, (±)-1-(3,5-Dimethyl-isoxazol-4-yl)-3-[4-(4-ethyl-2,5-dioxo-4-phenyl-imidazolidin-1-ylmethyl)-phenyl]-urea] gave an inhibition at 10 µM of 32%.
Work on `CCCC1(c2ccccc2)NC(=O)N(CC(=O)c2ccc(NC(=O)C3CCCN3)cc2)C1=O` (centres unmarked) [Example 23, Pyrrolidine-2-carboxylic acid {4-[2-(2,5-dioxo-4-phenyl-4-propyl-imidazolidin-1-yl)-acetyl]-phenyl}-amide] yielded an inhibition at 10 µM of 36%.
With `CC(C)CC(=O)Nc1ccc(C(=O)CN2C(=O)NC(c3ccccc3)(c3ccccc3)C2=O)c(F)c1` [Example 9, N-{4-[2-(2,5-Dioxo-4,4-diphenyl-imidazolidin-1-yl)-acetyl]-3-fluoro-phenyl}-3-methyl-butyramide] the inhibition at 10 µM was 83%.
For `CCCC1(c2ccccc2)NC(=O)N(CC(=O)c2ccc(NC(=O)C(CC)CC)cc2)C1=O` (racemic) [Example 24, (±)-N-{4-[2-(2,5-Dioxo-4-phenyl-4-propyl-imidazolidin-1-yl)-acetyl]-phenyl}-2-ethyl-butyramide], the inhibition at 10 µM was 96%.
For `CCCC1(c2ccccc2)NC(=O)N(CC(=O)c2ccc(NC(=O)Nc3ccccc3F)cc2)C1=O` (racemic) [Example 44, (±)-1-{4-[2-(2,5-Dioxo-4-phenyl-4-propyl-imidazolidin-1-yl)-acetyl]-phenyl}-3-(2-fluoro-phenyl)-urea], the inhibition at 10 µM was 56%.
Compound `CCC1(c2ccccc2)NC(=O)N(CC(=O)c2ccc(NC(=O)Nc3c(C)noc3C)cc2)C1=O` (racemic) [Example 2, (±)-1-(3,5-Dimethyl-isoxazol-4-yl)-3-{4-[2-(4-ethyl-2,5-dioxo-4-phenyl-imidazolidin-1-yl)-acetyl]-phenyl}-urea] has an inhibition at 10 µM of 98%.
Work on `Cc1ccc(C2(c3ccccc3)NC(=O)N(CC(=O)c3ccc(NC(=O)Nc4ccccc4F)cc3)C2=O)cc1` (racemic) [Example 39, (±)-1-{4-[2-(2,5-Dioxo-4-phenyl-4-p-tolyl-imidazolidin-1-yl)-acetyl]-phenyl}-3-(2-fluoro-phenyl)-urea] yielded an inhibition at 10 µM of 44%.
`Cc1ccc(C2(c3ccccc3)NC(=O)N(CC(=O)c3ccc(NC(=O)Cc4c(C)noc4C)cc3)C2=O)cc1` (racemic) [Example 42, (±)-2-(3,5-Dimethyl-isoxazol-4-yl)-N-{4-[2-(2,5-dioxo-4-phenyl-4-p-tolyl-imidazolidin-1-yl)-acetyl]-phenyl}-acetamide] gave an inhibition at 10 µM of 99%.
With `Cc1ccc(C2(c3ccccc3)NC(=O)N(CC(O)c3ccc(NC(=O)CC(C)C)cc3)C2=O)cc1` (racemic) [Example 14, (±)-N-{4-[2-(2,5-Dioxo-4-phenyl-4-p-tolyl-imidazolidin-1-yl)-1-hydroxy-ethyl]-phenyl}-3-methyl-butyramide] the inhibition at 10 µM was 58%.
In the case of `CCCC1(c2ccccc2)NC(=O)N(CC(=O)c2ccc(NC(=O)CC(C)C)cc2F)C1=O` (racemic) [Example 5, (±)-N-{4-[2-(2,5-Dioxo-4-phenyl-4-propyl-imidazolidin-1-yl)-acetyl]-3-fluoro-phenyl}-3-methyl-butyramide], the inhibition at 10 µM is reported as 63%.
Compound `CCCC1(c2ccccc2)NC(=O)N(CC(=O)c2ccc(NC(=O)Cc3c(C)noc3C)cc2)C1=O` (racemic) [Example 21, (±)-2-(3,5-Dimethyl-isoxazol-4-yl)-N-{4-[2-(2,5-dioxo-4-phenyl-4-propyl-imidazolidin-1-yl)-acetyl]-phenyl}-acetamide] has an inhibition at 10 µM of 97%.
Work on `CCCC1(c2ccccc2)NC(=O)N(CC(=O)c2ccc(NC(=O)C3CCOC3)cc2)C1=O` (centres unmarked) [Example 22, Tetrahydro-furan-3-carboxylic acid {4-[2-(2,5-dioxo-4-phenyl-4-propyl-imidazolidin-1-yl)-acetyl]-phenyl}-amide] yielded an inhibition at 10 µM of 83%.
`CCC(CC)C(=O)Nc1ccc(C(=O)CN2C(=O)NC(c3ccccc3)(c3ccccc3)C2=O)c(F)c1` [Example 34, N-{4-[2-(2,5-Dioxo-4,4-diphenyl-imidazolidin-1-yl)-acetyl]-3-fluoro-phenyl}-2-ethyl-butyramide] showed an inhibition at 10 µM of 90%.
`COc1ccc(F)cc1CC(=O)Nc1ccc(C(=O)CN2C(=O)NC(c3ccccc3)(c3ccccc3)C2=O)cc1` [Example 50, N-{4-[2-(2,5-Dioxo-4,4-diphenyl-imidazolidin-1-yl)acetyl]-phenyl}-2-(5-fluoro-2-methoxy-phenyl)-acetamide] was tested, and the inhibition at 10 µM was 80%.
`Cc1cnn(C)c1CC(=O)Nc1ccc(C(=O)CN2C(=O)NC(c3ccccc3)(c3ccccc3)C2=O)cc1` [Example 49, 2-(2,4-Dimethyl-2H-pyrazol-3-yl)-N-{4-[2-(2,5-dioxo-4,4-diphenyl-imidazolidin-1-yl)-acetyl]-phenyl}-acetamide] showed an inhibition at 10 µM of 64%.
`COc1ccccc1CC(=O)Nc1ccc(C(=O)CN2C(=O)NC(c3ccccc3)(c3ccc(C)cc3)C2=O)cc1` (racemic) [Example 40, (±)-N-{4-[2-(2,5-Dioxo-4-phenyl-4-p-tolyl-imidazolidin-1-yl)-acetyl]-phenyl}-2-(2-methoxy-phenyl)-acetamide] gave an inhibition at 10 µM of 70%.
Work on `CCCC1(c2ccccc2)NC(=O)N(CC(=O)c2ccc(NC(=O)Nc3c(C)noc3C)cc2F)C1=O` (racemic) [Example 1, (±)-1-(3,5-Dimethyl-isoxazol-4-yl)-3-{4-[2-(2,5-dioxo-4-phenyl-4-propyl-imidazolidin-1-yl)-acetyl]-3-fluoro-phenyl}-urea] yielded an inhibition at 10 µM of 105%.
